According to patent US20240284907A1, “NOVEL DERIVATIVES OF NON-CODED AMINO ACIDS AND THEIR USE AS HERBICIDES” (FortePhest LTD., priority 2021, published 2024):

Key:
[1] = test system: Seeds of Lettuce R. (Super-Jericho); assay: Filter paper bioassay with lettuce seeds: germination and early plant development, Minimal Effective Concentration (MEC); format: in vivo; details: lettuce seeds on filter paper, 0 to 1 mmol/l, visually assessed after 6 days
Method in brief: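 Non-sterilized Super-Jericho lettuce seeds, 10 per dish, on filter paper wetted with aqueous test solution at 0–1 mmol/l. Kept 48 h dark, then 4 days at 6/18 dark/light. MEC is the lowest concentration causing no germination or radicle/shoot malformation by visual scoring at day 6; at least two repeats.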

[2] = test system: Romaine lettuce (Lactuca sativa L.) plants; assay: Post-emergence herbicidal activity on potted Romaine lettuce plants (soil or foliar application); format: in vivo; details: lettuce at 2 to 3 leaves, two weeks after treatment
Description: The tests were performed on Romaine lettuce (Lactuca sativa L.) plants at the stage 2 to 3 leaves. The plants were grown in mini-pots packed with soil, dimensions 2×2×5 cm, one plant per mini-pot. Test compounds were dissolved in 0.1% aqueous solution water solution of Silwet adjuvant to final concentrations ranging from 0 (Control) to 0.0001%. The test compounds were applied on soil (1 ml per pot) or foliar with airbrush (0.1 ml per pot). Each concentration was tested on 20 plants. Two weeks after the treatment the herbicidal effects of the respective test material were visually evaluated (aboveground part and roots. Then the aboveground part of the plants was neatly cut and weighed (wet weight) to assess the growth inhibition caused by the test compound. The growth inhibition (GI) was calculated as following: […]
Where Mt and Mc are median wet weight of treated and control plants, respectively. In the context of the invention, the herbicidal effect was assessed by concentration of the compound causing more than 85% of Growth Inhibition (GI) or irreversible damage of the plants (Table 3). Herbicidal activity of selected DHAAs is summarized in Table 4 (soil application) and Table 5 (Foliar application).

For `O=C(O)Cc1cc(Br)nc(Br)c1` [compound 689, 2-(2,6-dibromopyridin-4-yl)acetic acid], the “Score (activity score of Minimal Effective Concentration, MEC)” value [1] was “Moderate (0.1 mM)” and the “Score (test material causing more than 85% of Growth Inhibition or irreversible plant damage)” value ([2]; soil application) was “moderate (0.5)”.
“2-(5-chlorothiophen-3-yl)-2,2-difluoroacetic acid [compound 5625]” was tested, and the “Score (activity score of Minimal Effective Concentration, MEC)” value [1] was “Strong (0.01 mM)”, the “Score (test material causing more than 85% of Growth Inhibition or irreversible plant damage)” value ([2]; foliar application) was “strong (0.01 to 0.05)” and the “Score (test material causing more than 85% of Growth Inhibition or irreversible plant damage)” value ([2]; soil application) was “strong (0.01 to 0.05)”.
For `O=C(O)/C(F)=C(\F)c1ccc(Br)nc1` [compound 6638, (2E)-3-(6-bromopyridin-3-yl)-2,3-difluoroprop-2-enoic acid], the “Score (activity score of Minimal Effective Concentration, MEC)” value [1] was “Moderate (0.1 mM)” and the “Score (test material causing more than 85% of Growth Inhibition or irreversible plant damage)” value ([2]; soil application) was “moderate (0.5)”.
“benzyl (6-bromopyridin-2-yl)(difluoro)acetate [compound 6646]” was tested, and the “Score (activity score of Minimal Effective Concentration, MEC)” value [1] was “Strong (0.01 mM)” and the “Score (test material causing more than 85% of Growth Inhibition or irreversible plant damage)” value ([2]; soil application) was “strong (0.01 to 0.05)”.
For `O=C(Cc1cc(Cl)sc1Cl)OCc1ccccc1` [compound 5669, benzyl 2-(2,5-dichlorothiophen-3-yl)acetate], the “Score (test material causing more than 85% of Growth Inhibition or irreversible plant damage)” value ([2]; foliar application) was “strong (0.01 to 0.05)” and the “Score (test material causing more than 85% of Growth Inhibition or irreversible plant damage)” value ([2]; soil application) was “strong (0.01 to 0.05)”.
In the case of “(2-bromopyridin-4-yl)acetic acid [compound 678]”, the “Score (activity score of Minimal Effective Concentration, MEC)” value [1] is reported as “Strong (0.01 mM)” and the “Score (test material causing more than 85% of Growth Inhibition or irreversible plant damage)” value ([2]; soil application) is reported as “weak (1.0)”.
For “difluoro(6-fluoropyridin-2-yl)acetic acid [compound 6664]”, the “Score (activity score of Minimal Effective Concentration, MEC)” value [1] was “Strong (0.01 mM)” and the “Score (test material causing more than 85% of Growth Inhibition or irreversible plant damage)” value ([2]; soil application) was “strong (0.01 to 0.05)”.
With “ethyl 2-(2-bromo-1,3-thiazol-4-yl)acetate [compound 5663]” the “Score (activity score of Minimal Effective Concentration, MEC)” value [1] was “Moderate (0.1 mM)”, the “Score (test material causing more than 85% of Growth Inhibition or irreversible plant damage)” value ([2]; foliar application) was “strong (0.01 to 0.05)” and the “Score (test material causing more than 85% of Growth Inhibition or irreversible plant damage)” value ([2]; soil application) was “moderate (0.5)”.
`CONCCc1cc(Cl)sc1Cl` [compound 5670, 2-(2,5-dichlorothiophen-3-yl)-N-methoxyethan-1-amine] was tested, and the “Score (activity score of Minimal Effective Concentration, MEC)” value [1] was “Moderate (0.1 mM)” and the “Score (test material causing more than 85% of Growth Inhibition or irreversible plant damage)” value ([2]; soil application) was “moderate (0.5)”.
`O=C(O)C(F)(F)c1cccc(Cl)n1` [compound 6667, (6-chloropyridin-2-yl)(difluoro)acetic acid] was tested, and the “Score (activity score of Minimal Effective Concentration, MEC)” value [1] was “Strong (0.01 mM)” and the “Score (test material causing more than 85% of Growth Inhibition or irreversible plant damage)” value ([2]; soil application) was “strong (0.01 to 0.05)”.
For “[6-chloro-5-(trifluoromethyl)pyridin-2-yl](difluoro)acetic acid [compound 6671]”, the “Score (activity score of Minimal Effective Concentration, MEC)” value [1] was “Strong (0.01 mM)” and the “Score (test material causing more than 85% of Growth Inhibition or irreversible plant damage)” value ([2]; soil application) was “strong (0.01 to 0.05)”.
In the case of `NC(=O)CCCc1cc(Cl)sc1Cl` [compound 5600, 4-(2,5-dichlorothiophen-3-yl)butanamide], the “Score (activity score of Minimal Effective Concentration, MEC)” value [1] is reported as “Weak (Higher than 0.1 mM)” and the “Score (test material causing more than 85% of Growth Inhibition or irreversible plant damage)” value ([2]; soil application) is reported as “moderate (0.5)”.
In the case of “(2E)-3-(2-bromopyridin-4-yl)-N-(4-hydroxyphenyl)prop-2-enamide [compound 6610]”, the “Score (activity score of Minimal Effective Concentration, MEC)” value [1] is reported as “Moderate (0.1 mM)” and the “Score (test material causing more than 85% of Growth Inhibition or irreversible plant damage)” value ([2]; soil application) is reported as “moderate (0.5)”.
In the case of `CCOC(=O)Cc1nc(Br)sc1C` [compound 5661, ethyl 2-(2-bromo-5-methyl-1,3-thiazol-4-yl)acetate], the “Score (activity score of Minimal Effective Concentration, MEC)” value [1] is reported as “Moderate (0.1 mM)”, the “Score (test material causing more than 85% of Growth Inhibition or irreversible plant damage)” value ([2]; foliar application) is reported as “moderate (0.5)” and the “Score (test material causing more than 85% of Growth Inhibition or irreversible plant damage)” value ([2]; soil application) is reported as “moderate (0.5)”.
In the case of `CC(=O)NCCc1nc(Cl)sc1Cl` [compound 5650, N-[2-(2,5-dichloro-1,3-thiazol-4-yl)ethyl]acetamide], the “Score (test material causing more than 85% of Growth Inhibition or irreversible plant damage)” value ([2]; soil application) is reported as “moderate (0.5)”.
With “difluoro[4-(trifluoromethyl)-1,3-thiazol-2-yl]acetic acid [compound 5760]” the “Score (activity score of Minimal Effective Concentration, MEC)” value [1] was “Moderate (0.1 mM)”.
With `NC(=O)CC(N)c1ccnc(Br)c1` (centres unmarked) [compound 6616, 3-amino-3-(2-bromopyridin-4-yl)propanamide] the “Score (activity score of Minimal Effective Concentration, MEC)” value [1] was “Weak (Higher than 0.1 mM)”.
With `NCCc1ccsc1` [compound 588, 2-(thiophen-3-yl)ethan-1-amine] the “Score (activity score of Minimal Effective Concentration, MEC)” value [1] was “weak”.
In the case of `O=C(O)CCC(F)(F)c1cc(Cl)sc1Cl` [compound 5632, 4-(2,5-dichlorothiophen-3-yl)-4,4-difluorobutanoic acid], the “Score (activity score of Minimal Effective Concentration, MEC)” value [1] is reported as “Moderate (0.1 mM)”.
`NC(=O)Cc1ccsc1` [compound 591, 2-(thiophen-3-yl)acetamide] was tested, and the “Score (activity score of Minimal Effective Concentration, MEC)” value [1] was “moderate”.
With `BrCCc1ccnc(Br)c1` [compound 690, 2-bromo-4-(2-bromoethyl)pyridine] the “Score (activity score of Minimal Effective Concentration, MEC)” value [1] was “Weak (Higher than 0.1 mM)”.
With `CC(=O)C1CN(CCc2cc(Cl)sc2Cl)CCC1=O` (centres unmarked) [compound 5743, 3-acetyl-1-[2-(2,5-dichlorothiophen-3-yl)ethyl]piperidin-4-one] the “Score (activity score of Minimal Effective Concentration, MEC)” value [1] was “Moderate (0.1 mM)”.
`O=C(O)C(=O)c1ccc(Br)nc1` [compound 6609, 2-(6-bromopyridin-3-yl)-2-oxoacetic acid] was tested, and the “Score (activity score of Minimal Effective Concentration, MEC)” value [1] was “Weak (Higher than 0.1 mM)”.
For “2-(4-methylphenyl)-2-oxoethyl(2-chloro-1,3-thiazol-4-yl)acetate [compound 5795]”, the “Score (activity score of Minimal Effective Concentration, MEC)” value [1] was “Moderate (0.1 mM)”.
With “(2-bromopyridin-4-yl)(oxo)acetic acid [compound 6626]” the “Score (activity score of Minimal Effective Concentration, MEC)” value [1] was “Moderate (0.1 mM)”.
For “2-(2,5-dichloro-1,3-thiazol-4-yl)ethan-1-amine [compound 5691]”, the “Score (activity score of Minimal Effective Concentration, MEC)” value [1] was “Strong (0.01 mM)”.
In the case of `CC(=O)NCCc1cc(Cl)sc1Cl` [compound 5629, N-[2-(2,5-dichlorothiophen-3-yl)ethyl]acetamide], the “Score (test material causing more than 85% of Growth Inhibition or irreversible plant damage)” value ([2]; soil application) is reported as “moderate (0.5)”.
In the case of “2-(2,5-dichlorothiophen-3-yl)-2-oxoacetic acid [compound 5631]”, the “Score (activity score of Minimal Effective Concentration, MEC)” value [1] is reported as “Weak (Higher than 0.1 mM)”.
`COC(=O)C(Cl)c1cc(Cl)sc1Cl` (centres unmarked) [compound 5656, methyl 2-chloro-2-(2,5-dichlorothiophen-3-yl)acetate] was tested, and the “Score (test material causing more than 85% of Growth Inhibition or irreversible plant damage)” value ([2]; soil application) was “moderate (0.5)”.
“N-{2-[3-(2,5-dichlorothiophen-3-yl)propoxy]phenyl}guanidine [compound 5732]” was tested, and the “Score (activity score of Minimal Effective Concentration, MEC)” value [1] was “Moderate (0.1 mM)”.
